Test results reported in article PMC2989642 (The European journal of neuroscience, 2010).
Values joined by “and” are separate entries in the source; they are usually repeats but may differ in a detail not shown here. Equal entries are not always repeated. Where two headings read alike, the source gives them in different places.

Tests used:
α7 nAChRs [1] = type: cell-based, mouse
α7 nAChRs [2] = target: T1, α7 nAChRs (Mus musculus, UniProt P49582); type: cell-based
[3] = tested on: SCG neurons from α5α7β2 KO animals; type: cell-based, mouse
α7 nAChRs [4] = type: cell-based, mouse; remark: listed apart in the source
α7 nAChRs [5] = target: T1, α7 nAChRs; type: cell-based; remark: listed apart in the source
α7 receptors = α7 receptors (Gallus gallus, UniProt P22770); type: cell-based, chick
[6] = target: hetero-oligomeric nAChR binding sites in SCG membranes (Mus musculus, UniProt Q8R493+Q8R4G9)
[7] = target: nAChRs in adult (intact) mouse SCG; settings: read-out: KD of [3H]-epibatidine binding, ref Del Signore et al., 2002; cited from earlier work
[8] = target: α3β4 receptors (in the α5β2 KO) (Mus musculus, UniProt Q8R493+Q8R4G9); assay: cell-based
[9] = target: α3β4α5 receptors (in the β2 KO) (Mus musculus, UniProt Q8R493+Q8R4G9); type: cell-based
[10] = target: α3β2 receptors (in the α5β4 KO) (Mus musculus, UniProt Q8R4G9+Q9ERK7); assay: cell-based; type: cell-based
rα3β4 receptors = settings: ref Wong et al., 1995; cited from earlier work
hα3β4 = settings: ref Nelson et al., 2001, cited from earlier work
human α3β4 receptors = settings: ref Chavez-Noriega et al., 1997; cited from earlier work
hα3α5β4 = settings: probed with 300 μM ACh; ref Nelson et al., 2001; cited from earlier work

α3β4 receptors (in the α5β2 KO), sequence (Q8R4G9 26-499): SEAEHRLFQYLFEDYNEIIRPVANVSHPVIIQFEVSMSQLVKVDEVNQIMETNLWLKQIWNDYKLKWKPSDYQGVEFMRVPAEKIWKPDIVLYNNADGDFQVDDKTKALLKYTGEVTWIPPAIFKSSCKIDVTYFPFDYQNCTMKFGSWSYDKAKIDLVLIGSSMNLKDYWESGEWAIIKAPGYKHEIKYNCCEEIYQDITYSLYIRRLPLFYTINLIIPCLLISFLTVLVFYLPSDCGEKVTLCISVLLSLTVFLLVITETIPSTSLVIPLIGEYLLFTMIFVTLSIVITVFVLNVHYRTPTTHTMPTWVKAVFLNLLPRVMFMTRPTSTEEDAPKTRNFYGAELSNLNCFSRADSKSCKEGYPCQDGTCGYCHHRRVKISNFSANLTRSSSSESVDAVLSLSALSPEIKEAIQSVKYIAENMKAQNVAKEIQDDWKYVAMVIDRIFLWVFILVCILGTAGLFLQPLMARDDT
α3β4 receptors (in the α5β2 KO), sequence (Q8R493 21-495): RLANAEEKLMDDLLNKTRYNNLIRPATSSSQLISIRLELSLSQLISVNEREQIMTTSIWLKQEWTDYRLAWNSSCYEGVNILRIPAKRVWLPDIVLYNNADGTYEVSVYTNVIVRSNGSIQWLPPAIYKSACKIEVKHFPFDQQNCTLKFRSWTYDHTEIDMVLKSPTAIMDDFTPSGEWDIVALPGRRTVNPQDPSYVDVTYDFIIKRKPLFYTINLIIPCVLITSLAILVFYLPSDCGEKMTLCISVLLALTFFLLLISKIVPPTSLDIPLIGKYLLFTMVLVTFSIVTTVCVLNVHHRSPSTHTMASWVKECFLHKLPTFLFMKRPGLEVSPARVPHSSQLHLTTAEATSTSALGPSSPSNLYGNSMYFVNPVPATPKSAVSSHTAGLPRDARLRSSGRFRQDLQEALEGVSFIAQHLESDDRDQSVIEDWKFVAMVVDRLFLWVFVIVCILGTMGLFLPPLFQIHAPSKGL
α3β4α5 receptors (in the β2 KO), sequence (Q8R4G9 26-499): as the sequence (Q8R4G9 26-499) above
α3β4α5 receptors (in the β2 KO), sequence (Q8R493 21-495): as the sequence (Q8R493 21-495) above
α3β4α5 receptors (in the β2 KO), sequence (Q2MKA5 30-467 partner): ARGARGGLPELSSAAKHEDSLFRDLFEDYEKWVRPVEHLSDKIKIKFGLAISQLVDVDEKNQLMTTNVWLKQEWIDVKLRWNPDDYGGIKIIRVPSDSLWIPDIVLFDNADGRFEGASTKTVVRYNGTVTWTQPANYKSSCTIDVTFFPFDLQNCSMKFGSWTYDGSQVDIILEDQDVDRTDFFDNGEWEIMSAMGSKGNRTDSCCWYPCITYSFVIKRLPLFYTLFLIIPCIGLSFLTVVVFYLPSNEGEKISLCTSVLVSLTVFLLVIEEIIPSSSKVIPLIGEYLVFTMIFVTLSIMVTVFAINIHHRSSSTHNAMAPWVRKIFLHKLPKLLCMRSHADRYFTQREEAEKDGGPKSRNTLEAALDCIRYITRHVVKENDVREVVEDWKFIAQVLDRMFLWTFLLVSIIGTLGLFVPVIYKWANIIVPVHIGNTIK
α3β2 receptors (in the α5β4 KO), sequence (Q8R4G9 26-499): as the sequence (Q8R4G9 26-499) above
α3β2 receptors (in the α5β4 KO), sequence (Q9ERK7 26-501): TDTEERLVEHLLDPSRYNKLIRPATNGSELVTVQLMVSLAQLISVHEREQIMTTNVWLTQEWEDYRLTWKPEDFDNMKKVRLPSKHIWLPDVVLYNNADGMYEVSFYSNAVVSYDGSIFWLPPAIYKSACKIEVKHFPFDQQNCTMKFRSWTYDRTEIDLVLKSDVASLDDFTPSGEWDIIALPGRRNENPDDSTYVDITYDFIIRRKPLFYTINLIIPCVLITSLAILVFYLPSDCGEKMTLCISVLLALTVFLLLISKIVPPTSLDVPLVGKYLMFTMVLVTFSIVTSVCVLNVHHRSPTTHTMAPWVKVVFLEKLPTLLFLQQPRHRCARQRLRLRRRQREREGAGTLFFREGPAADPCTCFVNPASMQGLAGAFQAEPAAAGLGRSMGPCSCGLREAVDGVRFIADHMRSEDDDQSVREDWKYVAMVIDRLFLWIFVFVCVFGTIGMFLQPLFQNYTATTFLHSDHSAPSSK
T1 sequence (P49582 23-502): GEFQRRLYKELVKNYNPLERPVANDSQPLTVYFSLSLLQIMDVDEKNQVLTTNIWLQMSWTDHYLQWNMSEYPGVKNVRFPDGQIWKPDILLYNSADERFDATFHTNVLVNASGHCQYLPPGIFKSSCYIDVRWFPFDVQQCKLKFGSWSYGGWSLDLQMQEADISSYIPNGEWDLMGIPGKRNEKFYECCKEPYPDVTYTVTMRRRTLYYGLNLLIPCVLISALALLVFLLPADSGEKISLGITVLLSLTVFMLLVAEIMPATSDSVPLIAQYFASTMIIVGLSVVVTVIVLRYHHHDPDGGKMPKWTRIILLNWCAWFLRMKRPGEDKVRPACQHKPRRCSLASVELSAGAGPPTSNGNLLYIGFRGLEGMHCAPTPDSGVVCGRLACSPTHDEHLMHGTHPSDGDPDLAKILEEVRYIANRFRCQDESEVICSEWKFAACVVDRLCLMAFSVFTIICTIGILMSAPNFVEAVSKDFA
hetero-oligomeric nAChR binding sites in SCG membranes, sequence (Q8R4G9 26-499): as the sequence (Q8R4G9 26-499) above
hetero-oligomeric nAChR binding sites in SCG membranes, sequence (Q8R493 21-495): as the sequence (Q8R493 21-495) above
hetero-oligomeric nAChR binding sites in SCG membranes, sequence (Q2MKA5 30-467 partner): as the sequence (Q2MKA5 30-467 partner) above
hetero-oligomeric nAChR binding sites in SCG membranes, sequence (Q9ERK7 26-501 partner): as the sequence (Q9ERK7 26-501) above
α7 receptors, sequence (P22770 23-502 limits assumed): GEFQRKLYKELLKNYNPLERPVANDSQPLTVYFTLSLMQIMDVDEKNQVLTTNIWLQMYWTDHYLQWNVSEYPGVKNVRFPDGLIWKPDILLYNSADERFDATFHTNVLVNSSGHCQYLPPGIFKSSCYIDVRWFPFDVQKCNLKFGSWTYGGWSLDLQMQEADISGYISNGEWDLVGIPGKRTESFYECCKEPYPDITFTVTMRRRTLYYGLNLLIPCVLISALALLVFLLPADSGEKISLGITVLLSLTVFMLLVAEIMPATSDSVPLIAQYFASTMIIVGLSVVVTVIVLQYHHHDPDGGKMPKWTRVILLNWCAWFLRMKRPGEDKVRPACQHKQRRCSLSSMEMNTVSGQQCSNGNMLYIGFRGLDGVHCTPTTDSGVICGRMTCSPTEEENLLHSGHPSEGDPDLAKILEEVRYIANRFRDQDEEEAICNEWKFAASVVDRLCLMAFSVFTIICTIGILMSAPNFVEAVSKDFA

COc1cc(OC)c(NC(=O)Nc2cc(C)on2)cc1Cl [PNU-120596]
peak currents in response to 300 μM ACh in the presence of 10 μM PNU-120596 (α7 nAChRs [1]; n = 13): somewhat reduced
choline-induced currents with 10 μM PNU-120596 versus without (α7 nAChRs [2]): significantly larger
choline-induced currents with 10 μM PNU-120596 versus without [3]: not significantly different
peak currents in response to 300 μM ACh in the presence of 10 μM PNU-120596 ([3]; n = 26): somewhat enhanced
peak currents in response to 300 μM ACh in the presence of 10 μM PNU-120596 (α7 nAChRs [4]; n = 14): somewhat enhanced
choline-induced currents with 10 μM PNU-120596 versus without (α7 nAChRs [5]): significantly larger
Peak currents in response to 10 mM choline in the presence of PNU-120596 (α7 receptors): 1688 ± 204 pA/pF

C[N+](C)(C)CCO [choline]
currents induced by choline (α7 nAChRs [2]): negligible currents
currents induced by choline (α7 nAChRs [4]): slowly decaying currents of considerable amplitude
Peak currents in response to 10 mM choline (α7 receptors): 40.4 ± 3.8 pA/pF

Clc1ccc(C2CC3CCC2N3)cn1 (racemic) [[^3H]-epibatidine, [5,6.bicycloheptyl-^3H](+/−)epibatidine]
Bmax of [3H]-epibatidine binding ([6]; averaged from 4 experiments, P18 WT SCG membranes): 345.8 ± 25.6 fmol/mg protein
Bmax of [3H]-epibatidine binding ([6]; single experiment shown in Fig. 1A): 371.2 ± 13.5 fmol/mg protein
Kd [7]: 0.000137 µM

C[N+]1(C)CCN(c2ccccc2)CC1.[I-] [DMPP, 1,1-dimethyl-4-phenylpiperazinium iodide]
Hill coefficient [8]: 1.91 ± 0.06
EC50 ([8]; EC50): 19 ± 0.76 µM
EC50 ([8]; fictitious EC50): 16.1 µM
EC50 [9]: 23 ± 1.17 µM
Hill coefficient [9]: 1.79 ± 0.08
EC50 ([9]; read-out: fictitious EC50): 39.2 µM
EC50 [10]: 11 ± 1.79 µM
Hill coefficient [10]: 1.21 ± 0.12

O=c1cccc2n1C[C@@H]1CNC[C@H]2C1 [Cytisine, cytisine]
potency ratio cytisine/DMPP (rα3β4 receptors): 1.47
Hill coefficient [8]: 1.44 ± 0.06
low-concentration potency ratio cytisine/DMPP [8]: 1.23
potency ratio cytisine/DMPP (low concentration) [8]: 1.34
EC50 ([8]; EC50): 34.5 ± 2.26 µM
EC50 ([8]; fictitious EC50): 21.7 µM
EC50 [9]: 37.7 ± 2.43 µM
Hill coefficient [9]: 1.10 ± 0.02
low-concentration potency ratio cytisine/DMPP [9]: 0.76 ± 0.04 and 0.76
potency ratio cytisine/DMPP (low concentration) [9]: 0.67
EC50 ([9]; read-out: fictitious EC50): 26.2 µM
potency ratio cytisine/DMPP (hα3β4): 1.29
potency ratio cytisine/DMPP (human α3β4 receptors): 4

CCN1C[C@]2(COC(=O)c3ccccc3N3C(=O)C[C@H](C)C3=O)CC[C@H](OC)[C@@]34[C@@H]5C[C@H]6[C@H](OC)[C@@H]5[C@](O)(C[C@@H]6OC)[C@@](O)([C@@H](OC)[C@H]23)[C@@H]14 [MLA, methyllycaconitine]
effect of MLA on peak currents in response to 500 μM ACh (α7 nAChRs [1]): unaffected
effect of MLA on peak currents in response to 500 μM ACh (α7 nAChRs [4]): unaffected

CC(=O)OCC[N+](C)(C)C [ACh, acetylcholine]
Af (fast amplitude, share of current) [8]: 13.0 ± 0.7 % ^1
Af + As + C (total amplitude) [8]: 3747 ± 215 pA ^6
As (slow amplitude, share of current) [8]: 56.3 ± 2.3 % ^3
C (plateau, share of current) [8]: 30.5 ± 2.8 % ^5
Hill coefficient [8]: 1.60 ± 0.05
Tf (fast decay time constant) [8]: 444 ± 22 (msec) ^2
Ts (slow decay time constant) [8]: 5495 ± 496 (msec) ^4
Af (fast amplitude, share of current) [9]: 16.8 ± 1.1 % ^1
Af + As + C (total amplitude) [9]: 3907 ± 230 pA ^6
Af, fast [9]: −809 pA
As (slow amplitude, share of current) [9]: 48.6 ± 2.6 % ^3
As, slow [9]: −2899 pA
C (plateau, share of current) [9]: 34.5 ± 2.8 % ^5
Tf (fast decay time constant) [9]: 449 ± 30 (msec) ^2
Tf, fast [9]: 0.47 s
Ts (slow decay time constant) [9]: 5592 ± 509 (msec) ^4
Ts, slow [9]: 6.98 s
plateau [9]: −943 pA
decay time constant (hα3α5β4): 563 ms
decay time constant (hα3β4; probed with 300 μM ACh): 495 ms
Af (fast amplitude, share of current) [10]: 50.5 ± 2.1%
Af + As + C (total amplitude) [10]: 1166 ± 77 pA
Af, fast [10]: −1171 pA
As (slow amplitude, share of current) [10]: 36.2 ± 1.7%
As, slow [10]: −472 pA
C (plateau, share of current) [10]: 13.2 ± 1.0%
EC50 [10]: 169 ± 25.2 µM
Hill coefficient [10]: 0.67 ± 0.04
Tf, fast [10]: 115 ms
Ts, slow [10]: 1477 ms
plateau [10]: −140 pA
